Measured values reported in patent publication US9884823B2, “Oxime ether acetate compound, preparation method therefor and weeding application thereof” (ZHEJIANG UNIVERSITY OF TECHNOLOGY, priority 2014, dated 2018).

Each compound was assayed on Cucumber (assay: Culture dish method (general screening)). Conditions: 100 mg/L; 7 days; root.
Assay type: in vivo
Text: (§3) Culture dish method (general screening): The test targets were radish, cucumber, rape, wheat, sorghum and barnyard grass; the seeds of wheat, sorghum and radish were germinated in advance, and the uniform emerge-germinating seeds were used in the test.

| Compound | inhibition rate, Cucumber Root [%] |
| --- | --- |
| CON=C(C(=O)OC)c1ccccc1COc1cc(-c2ccccn2)ccc1C(F)(F)F [Compound 112] | 50 |
| CON=C(C(=O)OC)c1ccccc1COc1ccc(-c2cccc(C)n2)cc1 [Compound 120] | 70 |

Same assay, conditions: 100 mg/L; 7 days; stem

| Compound | inhibition rate, Cucumber Stem [%] |
| --- | --- |
| CON=C(C(=O)OC)c1ccccc1COc1cc(-c2ccccn2)ccc1C(F)(F)F [Compound 112] | 80 |
| CON=C(C(=O)OC)c1ccccc1COc1ccc(-c2cccc(C)n2)cc1 [Compound 120] | 30 |

What follows are compounds tested on Mustard (assay: not given). Conditions: Postemergence spraying; 150 g a.i./ha; 30 days; Table 9.

| Compound | efficiency, Mustard [%] |
| --- | --- |
| CON=C(C(=O)OC)c1ccccc1COc1cc(-c2ccccn2)ccc1C(F)(F)F [Compound 112] | 100 |
| CON=C(C(=O)OC)c1ccccc1COc1ccc(-c2cccc(C)n2)cc1 [Compound 120] | 40 |

Same assay, conditions: Pre-emergence soil treatment; 150 g a.i./ha; 30 days; Table 9

| Compound | efficiency, Mustard [%] |
| --- | --- |
| CON=C(C(=O)OC)c1ccccc1COc1cc(-c2ccccn2)ccc1C(F)(F)F [Compound 112] | 50 |
| CON=C(C(=O)OC)c1ccccc1COc1ccc(-c2cccc(C)n2)cc1 [Compound 120] | 20 |

These compounds were tested on Eclipta prostrata (assay: Potted plants live body test). Conditions: Postemergence spraying; 150 g a.i./ha; 30 days; Table 9.
Assay type: in vivo
Text: (§1) The raw drug which was selected from the compounds in table 1 was weighed using an analytical balance (0.0001 g), and dissolved in DMF containing 1 wt % Tween-80 emulsifier to prepare a mother liquor of raw drug with a mass concentration of 1.0˜5.0%, and then diluted with distilled water, to prepare preparations at desired concentrations according to the ratio of ingredients in Examples 8, 9 and 10.
(§2) The test targets were mustard, small quinoa, Abutilon, amaranthus retroflexus, Eclipta prostrata, crabgrass, dog point. A pot with a diameter of 7.5 cm was used, filled with composite soil (garden soil:nursery matrix, 1:2, v/v) to ¾ of the pot, then the above […] kinds of weeds targets were directly seeded (germination rate ≧85%), covered with soil at a thickness of 0.2 cm. When the weeds grew to 3-leaf stage, pre-emergence soil treatment for weeds planting, and then spraying was performed.

| Compound | efficiency, Eclipta prostrata [%] |
| --- | --- |
| CON=C(C(=O)OC)c1ccccc1COc1cc(-c2ccccn2)ccc1C(F)(F)F [Compound 112] | 60 |
| CON=C(C(=O)OC)c1ccccc1COc1ccc(-c2cccc(C)n2)cc1 [Compound 120] | 30 |

Same assay, conditions: Pre-emergence soil treatment; 150 g a.i./ha; 30 days; Table 9

| Compound | efficiency, Eclipta prostrata [%] |
| --- | --- |
| CON=C(C(=O)OC)c1ccccc1COc1cc(-c2ccccn2)ccc1C(F)(F)F [Compound 112] | 0 |
| CON=C(C(=O)OC)c1ccccc1COc1ccc(-c2cccc(C)n2)cc1 [Compound 120] | 0 |

The compounds below were run on Abutilon (assay: Potted plants live body test). Conditions: Postemergence spraying; 150 g a.i./ha; 30 days; Table 9.
Assay type: in vivo
Text: as §1, §2

| Compound | efficiency, Abutilon [%] |
| --- | --- |
| CON=C(C(=O)OC)c1ccccc1COc1cc(-c2ccccn2)ccc1C(F)(F)F [Compound 112] | 50 |
| CON=C(C(=O)OC)c1ccccc1COc1ccc(-c2cccc(C)n2)cc1 [Compound 120] | 50 |

Same assay, conditions: Pre-emergence soil treatment; 150 g a.i./ha; 30 days; Table 9

| Compound | efficiency, Abutilon [%] |
| --- | --- |
| CON=C(C(=O)OC)c1ccccc1COc1cc(-c2ccccn2)ccc1C(F)(F)F [Compound 112] | 0 |
| CON=C(C(=O)OC)c1ccccc1COc1ccc(-c2cccc(C)n2)cc1 [Compound 120] | 0 |

Each compound was assayed on Crabgrass (assay: Potted plants live body test). Conditions: Postemergence spraying; 150 g a.i./ha; 30 days; Table 9.
Assay type: in vivo
Text: as §1, §2

| Compound | efficiency, Crabgrass [%] |
| --- | --- |
| CON=C(C(=O)OC)c1ccccc1COc1cc(-c2ccccn2)ccc1C(F)(F)F [Compound 112] | 0 |
| CON=C(C(=O)OC)c1ccccc1COc1ccc(-c2cccc(C)n2)cc1 [Compound 120] | 0 |

Same assay, conditions: Pre-emergence soil treatment; 150 g a.i./ha; 30 days; Table 9

| Compound | efficiency, Crabgrass [%] |
| --- | --- |
| CON=C(C(=O)OC)c1ccccc1COc1cc(-c2ccccn2)ccc1C(F)(F)F [Compound 112] | 0 |
| CON=C(C(=O)OC)c1ccccc1COc1ccc(-c2cccc(C)n2)cc1 [Compound 120] | 0 |

Each compound was assayed on Dog point (assay: Potted plants live body test). Conditions: Postemergence spraying; 150 g a.i./ha; 30 days; Table 9.
Assay type: in vivo
Text: as §1, §2

| Compound | efficiency, Dog point [%] |
| --- | --- |
| CON=C(C(=O)OC)c1ccccc1COc1cc(-c2ccccn2)ccc1C(F)(F)F [Compound 112] | 0 |
| CON=C(C(=O)OC)c1ccccc1COc1ccc(-c2cccc(C)n2)cc1 [Compound 120] | 0 |

Same assay, conditions: Pre-emergence soil treatment; 150 g a.i./ha; 30 days; Table 9

| Compound | efficiency, Dog point [%] |
| --- | --- |
| CON=C(C(=O)OC)c1ccccc1COc1cc(-c2ccccn2)ccc1C(F)(F)F [Compound 112] | 0 |
| CON=C(C(=O)OC)c1ccccc1COc1ccc(-c2cccc(C)n2)cc1 [Compound 120] | 0 |

These compounds were tested on amaranthus retroflexus (assay: Potted plants live body test). Conditions: Postemergence spraying; 150 g a.i./ha; 30 days; Table 9.
Assay type: in vivo
Text: as §1, §2

| Compound | efficiency, amaranthus retroflexus [%] |
| --- | --- |
| CON=C(C(=O)OC)c1ccccc1COc1cc(-c2ccccn2)ccc1C(F)(F)F [Compound 112] | 80 |
| CON=C(C(=O)OC)c1ccccc1COc1ccc(-c2cccc(C)n2)cc1 [Compound 120] | 20 |

Same assay, conditions: Pre-emergence soil treatment; 150 g a.i./ha; 30 days; Table 9

| Compound | efficiency, amaranthus retroflexus [%] |
| --- | --- |
| CON=C(C(=O)OC)c1ccccc1COc1cc(-c2ccccn2)ccc1C(F)(F)F [Compound 112] | 50 |
| CON=C(C(=O)OC)c1ccccc1COc1ccc(-c2cccc(C)n2)cc1 [Compound 120] | 0 |

These compounds were tested on Radish (assay: Culture dish method (general screening)). Conditions: 100 mg/L; 7 days; root.
Assay type: in vivo
Text: as §3

| Compound | inhibition rate, Radish Root [%] |
| --- | --- |
| CON=C(C(=O)OC)c1ccccc1COc1cc(-c2ccccn2)ccc1C(F)(F)F [Compound 112] | 50 |
| CON=C(C(=O)OC)c1ccccc1COc1ccc(-c2cccc(C)n2)cc1 [Compound 120] | 50 |

Same assay, conditions: 100 mg/L; 7 days; stem

| Compound | inhibition rate, Radish Stem [%] |
| --- | --- |
| CON=C(C(=O)OC)c1ccccc1COc1cc(-c2ccccn2)ccc1C(F)(F)F [Compound 112] | 80 |
| CON=C(C(=O)OC)c1ccccc1COc1ccc(-c2cccc(C)n2)cc1 [Compound 120] | 0 |

Each compound was assayed on Barnyardgrass (assay: Culture dish method (general screening)). Conditions: 100 mg/L; 7 days; root.
Assay type: in vivo, barnyard grass
Text: as §3

| Compound | inhibition rate, Barnyardgrass Root [%] |
| --- | --- |
| CON=C(C(=O)OC)c1ccccc1COc1cc(-c2ccccn2)ccc1C(F)(F)F [Compound 112] | 0 |
| CON=C(C(=O)OC)c1ccccc1COc1ccc(-c2cccc(C)n2)cc1 [Compound 120] | 60 |

Same assay, conditions: 100 mg/L; 7 days; stem

| Compound | inhibition rate, Barnyardgrass Stem [%] |
| --- | --- |
| CON=C(C(=O)OC)c1ccccc1COc1cc(-c2ccccn2)ccc1C(F)(F)F [Compound 112] | 0 |
| CON=C(C(=O)OC)c1ccccc1COc1ccc(-c2cccc(C)n2)cc1 [Compound 120] | 20 |

These compounds were tested on Wheat (assay: Culture dish method (general screening)). Conditions: 100 mg/L; 7 days; root.
Assay type: in vivo
Text: as §3

| Compound | inhibition rate, Wheat Root [%] |
| --- | --- |
| CON=C(C(=O)OC)c1ccccc1COc1cc(-c2ccccn2)ccc1C(F)(F)F [Compound 112] | 0 |
| CON=C(C(=O)OC)c1ccccc1COc1ccc(-c2cccc(C)n2)cc1 [Compound 120] | 20 |

Same assay, conditions: 100 mg/L; 7 days; stem

| Compound | inhibition rate, Wheat Stem [%] |
| --- | --- |
| CON=C(C(=O)OC)c1ccccc1COc1cc(-c2ccccn2)ccc1C(F)(F)F [Compound 112] | 0 |
| CON=C(C(=O)OC)c1ccccc1COc1ccc(-c2cccc(C)n2)cc1 [Compound 120] | 0 |

What follows are compounds tested on Rape (assay: Culture dish method (general screening)). Conditions: 100 mg/L; 7 days; root.
Assay type: in vivo
Text: as §3

| Compound | inhibition rate, Rape Root [%] |
| --- | --- |
| CON=C(C(=O)OC)c1ccccc1COc1cc(-c2ccccn2)ccc1C(F)(F)F [Compound 112] | 50 |
| CON=C(C(=O)OC)c1ccccc1COc1ccc(-c2cccc(C)n2)cc1 [Compound 120] | 60 |

Same assay, conditions: 100 mg/L; 7 days; stem

| Compound | inhibition rate, Rape Stem [%] |
| --- | --- |
| CON=C(C(=O)OC)c1ccccc1COc1cc(-c2ccccn2)ccc1C(F)(F)F [Compound 112] | 80 |
| CON=C(C(=O)OC)c1ccccc1COc1ccc(-c2cccc(C)n2)cc1 [Compound 120] | 0 |

Each compound was assayed on broadleaf weeds such as mustard, small quinoa, Abutilon, Amaranthus retroflexus and Eclipta prostrate (assay: not given). Conditions: 150 g a.i./ha; 30 days after administration; Table 9 summary.
Text: as §1, §2

| Compound | herbicidal activity on broadleaf weeds targets |
| --- | --- |
| CON=C(C(=O)OC)c1ccccc1COc1cc(-c2ccccn2)ccc1C(F)(F)F [Compound 112] | herbicidal activity |
| CON=C(C(=O)OC)c1ccccc1COc1ccc(-c2cccc(C)n2)cc1 [Compound 120] | herbicidal activity |

Same assay, conditions: postemergence spraying; 150 g a.i./ha; 30 days; vs clear water control

| Compound | activity on the growth of broadleaf weeds |
| --- | --- |
| CON=C(C(=O)OC)c1ccccc1COc1cc(-c2ccccn2)ccc1C(F)(F)F [Compound 112] | inhibitory activity |
| CON=C(C(=O)OC)c1ccccc1COc1ccc(-c2cccc(C)n2)cc1 [Compound 120] | inhibitory activity |

These compounds were tested on Small quinoa (assay: not given). Conditions: Postemergence spraying; 150 g a.i./ha; 30 days; Table 9.
Text: as §1, §2

| Compound | efficiency, Small quinoa [%] |
| --- | --- |
| CON=C(C(=O)OC)c1ccccc1COc1cc(-c2ccccn2)ccc1C(F)(F)F [Compound 112] | 75 |
| CON=C(C(=O)OC)c1ccccc1COc1ccc(-c2cccc(C)n2)cc1 [Compound 120] | 60 |

Same assay, conditions: Pre-emergence soil treatment; 150 g a.i./ha; 30 days; Table 9

| Compound | efficiency, Small quinoa [%] |
| --- | --- |
| CON=C(C(=O)OC)c1ccccc1COc1cc(-c2ccccn2)ccc1C(F)(F)F [Compound 112] | 45 |
| CON=C(C(=O)OC)c1ccccc1COc1ccc(-c2cccc(C)n2)cc1 [Compound 120] | 50 |

What follows are compounds tested on grass weeds such as crabgrass, barnyard grass, dog point (assay: not given). Conditions: 150 g a.i./ha; 30 days after administration; Table 9 summary.
Text: as §1, §2

| Compound | activity for grass targets such as crabgrass and dog point |
| --- | --- |
| CON=C(C(=O)OC)c1ccccc1COc1cc(-c2ccccn2)ccc1C(F)(F)F [Compound 112] | poor activity |
| CON=C(C(=O)OC)c1ccccc1COc1ccc(-c2cccc(C)n2)cc1 [Compound 120] | poor activity |

Same assay, conditions: postemergence spraying; 150 g a.i./ha; 30 days

| Compound | activity on grass weeds such as crabgrass, dog point |
| --- | --- |
| CON=C(C(=O)OC)c1ccccc1COc1cc(-c2ccccn2)ccc1C(F)(F)F [Compound 112] | almost have no activity |
| CON=C(C(=O)OC)c1ccccc1COc1ccc(-c2cccc(C)n2)cc1 [Compound 120] | almost have no activity |

The compounds below were run on Chinese sorghum (assay: Culture dish method (general screening)). Conditions: 100 mg/L; 7 days; root.
Assay type: in vivo
Text: as §3

| Compound | inhibition rate, Chinese sorghum Root [%] |
| --- | --- |
| CON=C(C(=O)OC)c1ccccc1COc1cc(-c2ccccn2)ccc1C(F)(F)F [Compound 112] | 0 |
| CON=C(C(=O)OC)c1ccccc1COc1ccc(-c2cccc(C)n2)cc1 [Compound 120] | 50 |

Same assay, conditions: 100 mg/L; 7 days; stem

| Compound | inhibition rate, Chinese sorghum Stem [%] |
| --- | --- |
| CON=C(C(=O)OC)c1ccccc1COc1cc(-c2ccccn2)ccc1C(F)(F)F [Compound 112] | 0 |
| CON=C(C(=O)OC)c1ccccc1COc1ccc(-c2cccc(C)n2)cc1 [Compound 120] | 30 |
